The values that follow come from patent US6894061B2, “Substituted dihydrophenanthridinesulfonamides” (Wyeth, priority 2002, dated 2005).

Series [1] deals with creatine kinase. The series can be described thus: Creatine kinase (CK) test procedure in Ad5-wt-ERα infected HAECT-1 cells. It counts as cell-based, human. The note with it: for Emax: read-out: Creatin Kinase Efficacy (%).
The test system of series [2] is IL-6. Nature of the series: IL-6 test procedure (IL-6 ELISA of media) in Ad5-wt-ERα infected HAECT-1 cells. The format is cell-based, human. The settings on record: for Emax: read-out: Interleukin-6 Efficacy (%); for IC50: read-out: Interleukin-6 IC50. As for the experimental part: After four hours, cells were washed with EBM-BSA and incubated overnight in the same medium. Following overnight incubation, cells were washed with EBM-BSA and infected for 2 hours with 6 mL of a 1:10 dilution of Ad5-3x(NFκB).Luc virus (Adenovirus luciferase expression vector driven by 3 repeats of the MHC NFκb site 5′ to the thymidine kinase promoter) in EBM-BSA. After two hours, cells were washed and incubated at 34° C. for 1 hour. […] Control (no ER infection) cells were processed as above without Ad5-wt-hERα virus infection.
ERα infected HAECT-1 cells or control cells were thawed, diluted 42× in warm EBM-BSA, plated into 96-well plates at 0.1 mL/well and incubated for 4 hours at 34° C. Test compounds were added to the cells as 2× stocks in EBM-BSA containing 2 ng/mL IL-1β (R&D Systems) and the 96-well plates were returned to the incubator (34° C.). After 15-20 hours, 100 μL aliquots of media were removed from the cells and assayed for IL-6 content using a BioSource human IL-6 ELISA Kit. Cells were subsequently washed with 300 μL of Dulbecco's phosphate buffered saline and lysed in 50 μL of Cell Culture Lysis Reagent (Promega). Luciferase was determined on a Wallac Victor^2 Luminometer (Gaithersburg, Md.) using 10 μL of lysate and mixing with 100 μL of Promega Luciferase Assay reagent. Creatine kinase was determined from the rate of increase in A340 following addition of 100 μL of CK assay reagent (Sigma, cat. No 47-10) to the remainder of the cell lysate.
For IC50 and EC50 calculations, mean IL-6, luciferase or CK values versus log10 of the compound concentration were fitted to a four parameter logistic equation. The IC50/EC50 value, ‘Hill slope’, upper and lower limits of the curve were iteratively estimated.
A general note: An ELISA detects its analyte on a solid surface through an enzyme-linked reagent.

The subject of series [3] is ER/NF-κB. Nature of the series: ER/NF-κB luciferase reporter in Ad5-wt-ERα infected HAECT-1 cells. It counts as cell-based, human. The note with it: Homo sapiens, HAECT1, IL-1β, read-out: ER/NFκB IC50. A general note: A reporter such as luciferase makes a cellular process visible.
[4] abbreviates: Homo sapiens, HAECT1, Ad5-wt-ERα infected HAECT-1 cells, read-out: Creatin Kinase EC50.
[5] abbreviates: Homo sapiens, HAECT1, Ad5-wt-ERα infected HAECT-1 cells.
Setting [6] is: Ad5-wt-ERα infected HAECT-1 cells.

Structures are written as SMILES. Like-named read-outs stand apart in the source and are kept apart here. A value given as a limit tells only on which side of the number the result lay.

Turning to `C[C@@H]1c2ccccc2-c2ccc(F)cc2N1S(=O)(=O)c1ccc(O)cc1O` [Example 110, 4-{[(6R)-3-Fluoro-6-methylphenanthridin-5(6H)-yl]sulfonyl}benzene-1,3-diol], the melting point (in general, the temperature, or range, at which the solid turns liquid) was in the range of 150 to 152 °C. In addition, in series [1] (setting [4]), the EC50 – broadly, the midpoint of the concentration-response curve – stood at 954 nM. For the same molecule, the Emax in series [1] (setting [5]) is -7%. For the same molecule, in series [2] (Homo sapiens, HAECT1, IL-1β), the Emax was determined as 38% and the IC50 worked out at 2340 nM.
In turn, `C[C@H]1c2cc(F)ccc2-c2ccccc2N1S(=O)(=O)c1ccc(OS(N)(=O)=O)cc1` [Example 126, 4-{[(6S)-8-Fluoro-6-methylphenanthridin-5(6H)-yl]sulfonyl}phenyl sulfamate] gave a melting point of 166.5 to 167 °C. In addition, the EC50 in series [1] (setting [4]) was found to be 661 nM. The Emax in series [1] (setting [5]) was 61%. In addition, in series [2] (Homo sapiens, HAECT1, IL-1β), the Emax turned out to be 99% and the IC50 amounted to 40 nM.
In turn, `CC1c2ccc(F)cc2-c2ccc(F)cc2N1S(=O)(=O)c1cccc(O)c1` (stereo not shown) [Example 115, 3-[(3,9-Difluoro-6-methylphenanthridin-5(6H)-yl)sulfonyl]phenol] yielded a melting point of 167.2 to 173 °C. Further, the EC50 in series [1] (setting [4]) is 102 nM. Moreover, in series [1] (setting [5]), the Emax stood at 16%. Further, in series [2] (Homo sapiens, HAECT1, IL-1β), the Emax stood at 102% and the IC50 was found to be 81 nM.
On the same counts, the results for `CC1c2ccc(F)cc2-c2cc(F)ccc2N1S(=O)(=O)c1cccc(O)c1` (stereo not shown) [Example 117, 3-[(2,9-Difluoro-6-methylphenanthridin-5(6H)-yl)sulfonyl]phenol] are 165.5 to 171 °C, 40 nM, 8%, 101% and 104 nM.
The corresponding values for `C[C@@H]1c2ccccc2-c2ccc(Cl)cc2N1S(=O)(=O)c1ccc(O)cc1O` [Example 124, 4-{[(6R)-3-Chloro-6-methylphenanthridin-5(6H)-yl]sulfonyl}benzene-1,3-diol] are 178.2 to 182 °C, 624 nM, 4%, 19% and 224 nM.
In turn, `CC1c2ccc(F)cc2-c2cc(F)ccc2N1S(=O)(=O)c1ccc(O)cc1` (stereo not shown) [Example 116, 4-[(2,9-Difluoro-6-methylphenanthridin-5(6H)-yl)sulfonyl]phenol] had a melting point of 194 to 196 °C. Besides, the EC50 in series [1] (setting [4]) worked out at 326 nM. In series [1] (setting [5]), the Emax amounted to 23%. In addition, in series [2] (Homo sapiens, HAECT1, IL-1β), the Emax worked out at 99% and the IC50 is 130 nM.
Turning to `CC1c2ccccc2-c2ccc(F)cc2N1S(=O)(=O)c1ccc(O)cc1` (stereo not shown) [Example 105, 4-[(3-Fluoro-6-methylphenanthridin-5(6H)-yl)sulfonyl]phenol], the melting point lay within 162 to 165 °C. Further, the EC50 in series [1] (setting [4]) turned out to be 32 nM. For the same molecule, in series [1] (setting [5]), the Emax is 17%. Moreover, in series [2] (Homo sapiens, HAECT1, IL-1β), the Emax was greater than 100% and the IC50 is 92 nM.
Molecule `CC1c2ccccc2-c2ccc(Cl)cc2N1S(=O)(=O)c1cccc(O)c1` (stereo not shown) [Example 118, 3-[(3-Chloro-6-methylphenanthridin-5(6H)-yl)sulfonyl]phenol] showed a melting point of 215 °C. For the same molecule, in series [1] (setting [5]), the Emax was -16%. Also, in series [2] (Homo sapiens, HAECT1, IL-1β), the Emax amounted to 103% and the IC50 turned out to be 96 nM.
As for `C[C@]12CC[C@@H]3c4ccc(O)cc4CC[C@H]3[C@@H]1CC[C@@H]2O` [Example E2, 17β-estradiol, reference compound], in series [1] (Homo sapiens, HAECT1, read-out: Creatin Kinase EC50), the EC50 amounted to 5.8 nM. Further, the IC50 was roughly 1 nM in series [2] (Homo sapiens, HAECT1, IL-1β) and roughly 1 nM in series [3].
The molecule `CC1c2ccccc2-c2ccc(F)cc2N1S(=O)(=O)c1cccc(O)c1` (stereo not shown) [Example 106, 3-[(3-Fluoro-6-methylphenanthridin-5(6H)-yl)sulfonyl]phenol] yielded a melting point of 164 to 167 °C. In series [1] (setting [4]), the 50% effective concentration (EC50) came out at 1420 nM. The Emax in series [1] (setting [5]) stood at 22%. In series [2] (Homo sapiens, HAECT1, IL-1β), the Emax is 104% and the IC50 came out at 43 nM.
Turning to `C[C@H]1c2ccccc2-c2ccc(Cl)cc2N1S(=O)(=O)c1cccc(O)c1` [Example 120, 3-{[(6S)-3-Chloro-6-mthylphenanthridin-5(6H)-yl]sulfonyl}ph nol], the “Creatin Kinase Efficacy (%)” value in series [1] (setting [6]) is recorded as 10%. In addition, in series [2] (IL-1β), the “Interleukin-6 Efficacy (%)” value is on record as 153% and the IC50 came out at 6 nM.
The molecule `CC1c2ccccc2-c2ccc(Cl)cc2N1S(=O)(=O)c1ccc(O)cc1` (stereo not shown) [Example 121, 4-[(3-Chloro-6-methylphenanthridin-5(6H)-yl)sulfonyl]phenol] returned a melting point of 204 °C. Also, in series [1] (setting [4]), the EC50 is 107 nM. In addition, the Emax in series [1] (setting [5]) amounted to 29%. In series [2] (Homo sapiens, HAECT1, IL-1β), the Emax turned out to be 113% and the IC50 came to 30 nM.
Molecule `C[C@@H]1c2ccccc2-c2ccc(Cl)cc2N1S(=O)(=O)c1cccc(O)c1` [Example 119, 3-{[(6R)-3-Chloro-6-methylphenanthridin-5(6H)-yl]sulfonyl}phenol] showed a melting point of 220.9 to 223 °C. Besides, the Emax in series [1] (setting [5]) turned out to be 21%. Moreover, in series [2] (Homo sapiens, HAECT1, IL-1β), the Emax came to 35% and the IC50 came to 18 nM.
`C[C@H]1c2ccccc2-c2ccc(Cl)cc2N1S(=O)(=O)c1ccc(O)cc1` [Example 123, 4-{[(6S)-3-Chloro-6-methylphenanthridin-5(6H)-yl]sulfonyl}phenol]: the melting point was 213.5 to 220 °C. Moreover, in series [1] (setting [5]), the Emax worked out at 2%. In series [2] (Homo sapiens, HAECT1, IL-1β), the Emax is 154% and the IC50 amounted to 7 nM.
As to `C[C@H]1c2cc(F)ccc2-c2ccc(F)cc2N1S(=O)(=O)c1ccc(O)cc1O` (single isomer, unassigned) [Example 103], in series [1] (setting [4]), the EC50 was 85 nM. In series [1] (setting [5]), the Emax is 9%. Moreover, in series [2] (Homo sapiens, HAECT1, IL-1β), the Emax is 141% and the IC50 worked out at 47 nM.
`CC1c2ccccc2-c2cc(F)ccc2N1S(=O)(=O)c1ccc(O)cc1` (stereo not shown) [Example 112, 4-[(2-Fluoro-6-methylphenanthridin-5(6H)-yl)sulfonyl]phenol] gave a melting point of 216 to 218 °C. Further, the 50% effective concentration (EC50) in series [1] (setting [4]) is 337 nM. Besides, in series [1] (setting [5]), the Emax stood at 1%. In addition, in series [2] (Homo sapiens, HAECT1, IL-1β), the Emax was 100% and the IC50 stood at 175 nM.
`CC1c2ccccc2-c2cc(F)ccc2N1S(=O)(=O)c1cccc(O)c1` (stereo not shown) [Example 113, 3-[(2-Fluoro-6-methylphenanthridin-5(6H)-yl)sulfonyl]phenol] had a melting point of 195 to 196 °C. The 50% effective concentration (EC50) in series [1] (setting [4]) was found to be 284 nM. Besides, the Emax in series [1] (setting [5]) was determined as 40%. Besides, in series [2] (Homo sapiens, HAECT1, IL-1β), the Emax worked out at 100% and the IC50 was 173 nM.
`C[C@H]1c2ccccc2-c2ccc(F)cc2N1S(=O)(=O)c1cccc(O)c1` [Example 108, 3-{[(6S)-3-Fluoro-6-methylphenanthridin-5(6H)-yl]sulfonyl}phenol]: the EC50 in series [1] (setting [4]) was determined as 152 nM. Also, the Emax in series [1] (setting [5]) amounted to 11%. In series [2] (Homo sapiens, HAECT1, IL-1β), the Emax was 92% and the IC50 was 43 nM.
For `C[C@@H]1c2ccccc2-c2ccc(Cl)cc2N1S(=O)(=O)c1ccc(O)cc1` [Example 122, 4-{[(6R)-3-Chloro-6-methylphenanthridin-5(6)-yl]sulfonyl}phenol], in series [1] (setting [6]), the “Creatin Kinase Efficacy (%)” value is listed as 14%. Further, the EC50 in series [1] (Ad5-wt-ERα infected HAECT-1 cells, read-out: Creatin Kinase EC50) came out at 805 nM. Further, in series [2] (IL-1β), the “Interleukin-6 Efficacy (%)” value came to 37% and the IC50 is 464 nM.
